# Measured values: US6780885B1, “Formulations and methods for administration of pharmacologically or biologically active compounds” (IDEXX Laboratories, Inc., priority 2000, dated 2004)
# How the values were obtained:
# roundworms (Ascaridia) = assay: ivermectin formulation in the drinking water of turkeys, roundworm infestation; format: in vivo; conditions: in three days
# Experimental: (§1) The 2% ivermectin solution is diluted 20-fold to 0.1% in water. From the 0.1%, 3.4 ml is dissolved in 5 liters (QS) of water. The dose to be administered in order to obtain effective treatment of various parasites depends on the size of the fowl to be treated (i.e., their drinking capacity). A 4.5 kg turkey will typically drink 600-1000 ml of water every 24 hours. This corresponds to a dose of 100-150 μgm/kg/day. […] The effective dose to administer to any other type of animal to treat a particular type of parasite can be easily determined by simply varying the dosage until arriving at an effective dose.
# A non-aqueous, stable formulation of ivermectin was prepared and diluted into the drinking water of market male turkeys as described above. […] The birds were treated at levels of 10, 50, 100, 200, 250, 500, 1200, and 1400 mg/kg of body weight/day. […] The formulation was effective at completely eliminating any visible signs of roundworm infestation at levels down to […] body weight/day in three days.
# cecal worms (Heterakis) = assay: ivermectin formulation in the drinking water of turkeys, cecal worms; format: in vivo; conditions: in three days
# Experimental: as §1
substance,measurement,setting,value
ivermectin,dose effective to completely eliminate roundworms (Ascaridia),roundworms (Ascaridia); in drinking water,200 mg ivermectin/kg body weight/day
same,elimination of roundworms,roundworms (Ascaridia); formulation in drinking water,complete elimination
same,dose effective to completely eliminate cecal worms (Heterakis),cecal worms (Heterakis); in drinking water,200 mg ivermectin/kg body weight/day
same,elimination of cecal worms,cecal worms (Heterakis); formulation in drinking water,complete elimination
